The conditions of data set [1]: cited from earlier work.
The test system of data set [2] is human sperm. Briefly: Computer-assisted spermicidal assay (CASA) on washed highly motile fraction of sperm. To be noted: 3 h at 37° C.; for effect on human sperm motility: concentrations up to those used for GM-4, CASA. Type of data set: cell-based. The procedure:
All donor specimens were obtained after informed consent and in compliance with the guidelines of the Parker Hughes Institute Institutional Review Board. […] Sigma Chemical Co., St. Louis, Mo.) in the presence and absence of serial 2-fold dilutions of test substance. […] After 3 h incubation at 37° C., the sperm head centroid-derived sperm motility parameters were determined using a Hamilton Thorne Research (Danvers, Mass.) Integrated Visual Optical System (IVOS), version 10 instrument, as previously described (D'Cruz O J, et al., Biol Reprod, 1998;58:1515-26.; D'Cruz O J, et al., Mol Hum Reprod, 1998;4:683-93.; D'Cruz O J, et al., Biol Reprod, 1999;60:435-44.; D'Cruz O J, et al. Biol Reprod, 1999;60:1419-28.). The attributes of sperm kinematic parameters evaluated included numbers of motile (MOT) and progressively (PRG) motile sperm; curvilinear velocity (VCL); average path velocity (VAP); straight-line velocity (VSL); beat-cross frequency (BCF); and the amplitude of lateral head displacement (ALH) and the derivatives, straightness (STR) and linearity (LIN). Data from each individual cell track were recorded and analyzed. For each aliquot sampled, >200 sperm were analyzed. The percentage motilities were compared with those of sham-treated control suspensions of motile sperm.

A short description of data set [3]: Solubility of WHI-07. Type of data set: physicochemical. To be noted: for solubility at 2 h: thermodynamic from solid, n = 3. How it is done:
(§1) After the drug was completely dissolved in octanol, 5 ml of water was added to each octanol solution. The mixtures were handshaken vigorously for 10 min, and afterward let to stand overnight until a complete phase separation occurred.
The solubility of WHI-07 in Captex® 300 and polyethylene glycol 300 was carried out using UV-Vis spectrophotometer at 272 nm.
Calibration curve: Two stock solutions of WHI-07 were prepared in ethanol at concentrations of 4.2 mg/ml and 3.85 mg/ml respectively. The plot of the calibration curve is shown in Curve 1.
Appropriate amounts of WHI-07 and Captex® 300 or PEG300 were weighed and placed in glass containers. Each sample was stirred with a stir bar at ambient temperature for 2 hours. Each sample was then filtered through 0.45 μm filter, and diluted with ethanol for UV-Vis measurement.

The nature of data set [4]: Octanol/water partition coefficient of WHI-07. It counts as physicochemical. The procedure: as §1
Samples of water and octanol were taken from each mixture, and directly injected into the HPLC for analysis. The peak area ratios represent the partition coefficient.

“And” between values parts separate entries of the source, which are not always exact repeats. Equal values may be shown once.

For the compound “isononyl-phenyl-polyoxyethylene (9) ether [N-9]”, the “average 6-month pregnancy rate” value in data set [1] (users of N-9, several large studies) is 26%. For the same compound, in data set [1] (users of N-9), the “effectiveness in preventing pregnancy” value is recorded as “approximately 75%”.
On to `CC(O)CO` (stereo not drawn) [propylene glycol, propane-1,2-diol], for which, in data set [2], the “EC50 (concentration that decreased the proportion of motile sperm by 50%)” value is recorded as more than 4.2% and the “effect on human sperm motility” value is given as “partially spermicidal at the highest concentration tested”.
Turning to `O=C([O-])c1ccccc1.[Na+]` [sodium benzoate], the “effect on human sperm motility” value in data set [2] is listed as “little or no inhibitory effects”.
Broadly, the solubility is how much of the substance goes into solution per volume. `COC(=O)C(C)NP(=O)(OC[C@H]1O[C@@H](N2C(=O)NC(=O)C(C)(Br)C2OC)CC1N=[N+]=[N-])Oc1ccc(Br)cc1` (mixture of isomers) [WHI-07, (5R,6R)-and (5S,6S)-5-bromo-6-methoxy-5,6-dihydro-AZT-5′-(para-bromophenylmethoxyalaninyl phosphate)]: in data set [3] (medium chain triglyceride), the “solubility in oil (medium chain triglyceride)” value is listed as 4.1%. Also, the solubility at 2 h in data set [3] (oil or lipid, in Captex® 300, ambient temperature) was found to be 40.6 mg/mL; in data set [3] (organic solvent or mixture, in PEG300, ambient temperature) it was 132 mg/mL. The “solubility in polyethylene glycol 300” value in data set [3] (polyethylene glycol 300) was 13.1%. Also, in data set [3] (water), the solubility in water is listed as less than 0.003%. In addition, the logP in data set [4] (octanol/water, average of four samples, read-out: Octanol/Water partition coefficient Log KD) turned out to be 2.05. In addition, in data set [4] (single samples 1-4, HPLC), the “Peak area ratio Octanol/water” value was 113.9 and 111.3 and 115.8 and 109.2.

(Values after US7064114B2, “Gel-microemulsion formulations” (priority 1999, dated 2006).)
